Reference: US12286442B2, “Methods and materials for increasing transcription factor eb polypeptide levels” (University of Pittsburgh—Of the Commonwealth System of …, priority 2019, dated 2025)

Legend:
BEAS-2B cells = assay: Toxicity: compound concentration needed to induce greater than 50 percent of cell loss; type: cell-based, human; conditions: 18 hours incubation
Summary of the method: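 BEAS-2B cells stably expressing TFEB-EGFP treated with serial compound dilutions for 18 h, then PFA-fixed, DAPI-stained and imaged. Toxicity scored as the concentration causing >50% cell loss, binned as ≥25 μM, <25 and >1 μM, or ≤1 μM ("+++").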

TFEB = assay: High content screen measuring TFEB nuclear accumulation (TFEB nuclear/cytosol ratio) in BEAS-2B cells stably expressing TFEB-EGFP; type: cell-based, human; conditions: 18 hours incubation
Summary of the method: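 BEAS-2B cells stably expressing TFEB-EGFP (~2300–2500 per well) pre-incubated 8 hours, then exposed to serially diluted compounds (DMEM low glucose, 2% FBS) for 18 hours, PFA-fixed and DAPI-stained. Imaged nuclear (DAPI mask) vs cytosolic (expanded mask) TFEB-GFP; activity = minimal concentration raising nuclear/cytosol ratio by 25%.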

| Structure (SMILES) | toxicity (compound concentration needed to induce greater than 50 percent of cell loss) (BEAS-2B cells) | efficacy (minimal compound concentration needed to increase TFEB nuclear/cytosol ratio by 25%) (TFEB) |
| --- | --- | --- |
| NS(=O)(=O)CCCNc1nc(-c2ccncc2)nc2ccccc12 [Compound 174] | + (cell loss of greater than 50 percent at a concentration that equals or is greater than 25 μM was represented as) | + (“+” equals >25 μM) |
| c1ccc2c(NC3CCN(C4CC4)CC3)nc(-c3ccncc3)nc2c1 [Compound 175] | + (cell loss of greater than 50 percent at a concentration that equals or is greater than 25 μM was represented as) | + (“+” equals >25 μM) |
| CCN1CCCC1CNc1nc(-c2ccncc2)nc2ccccc12 (stereo not drawn) [Compound 176] | + (cell loss of greater than 50 percent at a concentration that equals or is greater than 25 μM was represented as) | ++ (“++” equals between ≤25 μM and >1 μM) |
| OC1CCN(c2nc(-c3ccncc3)nc3ccccc23)CC1 [Compound 177] | + (cell loss of greater than 50 percent at a concentration that equals or is greater than 25 μM was represented as) | + (“+” equals >25 μM) |
| c1ccc(Nc2nc(-c3ccncc3)nc3ccccc23)cc1 [Compound 179] | + (cell loss of greater than 50 percent at a concentration that equals or is greater than 25 μM was represented as) | ++ (“++” equals between ≤25 μM and >1 μM) |
| Fc1ccccc1Nc1nc(-c2ccncc2)nc2ccccc12 [Compound 180] | + (cell loss of greater than 50 percent at a concentration that equals or is greater than 25 μM was represented as) | + (“+” equals >25 μM) |
| Fc1ccc(Nc2nc(-c3ccncc3)nc3ccccc23)cc1 [Compound 181] | + (cell loss of greater than 50 percent at a concentration that equals or is greater than 25 μM was represented as) | +++ (“+++” equals ≤1 μM) |
| Fc1cc(F)cc(Nc2nc(-c3ccncc3)nc3ccccc23)c1 [Compound 182] | + (cell loss of greater than 50 percent at a concentration that equals or is greater than 25 μM was represented as) | + (“+” equals >25 μM) |
| Fc1ccc(Nc2nc(-c3ccncc3)nc3ccccc23)cc1F [Compound 183] | + (cell loss of greater than 50 percent at a concentration that equals or is greater than 25 μM was represented as) | ++ (“++” equals between ≤25 μM and >1 μM) |
| Cc1cc(F)cc(Nc2nc(-c3ccncc3)nc3ccccc23)c1 [Compound 184] | + (cell loss of greater than 50 percent at a concentration that equals or is greater than 25 μM was represented as) | ++ (“++” equals between ≤25 μM and >1 μM) |
| Cc1cccc(Nc2nc(-c3ccncc3)nc3ccccc23)c1 [Compound 185] | + (cell loss of greater than 50 percent at a concentration that equals or is greater than 25 μM was represented as) | +++ (“+++” equals ≤1 μM) |
| N#Cc1cccc(Nc2nc(-c3ccncc3)nc3ccccc23)c1 [Compound 186] | + (cell loss of greater than 50 percent at a concentration that equals or is greater than 25 μM was represented as) | +++ (“+++” equals ≤1 μM) |
| Clc1cccc(Nc2nc(-c3ccncc3)nc3ccccc23)c1 [Compound 187] | + (cell loss of greater than 50 percent at a concentration that equals or is greater than 25 μM was represented as) | +++ (“+++” equals ≤1 μM) |
| Fc1cccc(CNc2nc(-c3ccncc3)nc3ccccc23)c1 [Compound 188] | + (cell loss of greater than 50 percent at a concentration that equals or is greater than 25 μM was represented as) | + (“+” equals >25 μM) |
| FC(F)(F)c1cccc(Nc2nc(-c3ccncc3)nc3ccccc23)c1 [Compound 189] | + (cell loss of greater than 50 percent at a concentration that equals or is greater than 25 μM was represented as) | ++ (“++” equals between ≤25 μM and >1 μM) |
| COc1cccc(Nc2nc(-c3ccncc3)nc3ccccc23)c1 [Compound 190] | + (cell loss of greater than 50 percent at a concentration that equals or is greater than 25 μM was represented as) | ++ (“++” equals between ≤25 μM and >1 μM) |
| c1ccc2c(Nc3ccc4[nH]nnc4c3)nc(-c3ccncc3)nc2c1 [Compound 191] | + (cell loss of greater than 50 percent at a concentration that equals or is greater than 25 μM was represented as) | +++ (“+++” equals ≤1 μM) |
| Cc1nc2ccc(Nc3nc(-c4ccncc4)nc4ccccc34)cc2s1 [Compound 192] | + (cell loss of greater than 50 percent at a concentration that equals or is greater than 25 μM was represented as) | +++ (“+++” equals ≤1 μM) |
| c1ccc2c(Nc3ccc4[nH]cnc4c3)nc(-c3ccncc3)nc2c1 [Compound 193] | ++ (cell loss of greater than 50 percent at a concentration less than 25 μM and greater than 1 μM was represented as) | ++ (“++” equals between ≤25 μM and >1 μM) |
| Fc1cccc(Nc2nc(-c3ccncc3)nc3ccncc23)c1 [Compound 194] | + (cell loss of greater than 50 percent at a concentration that equals or is greater than 25 μM was represented as) | +++ (“+++” equals ≤1 μM) |
| Cc1ccc(-c2nc(Nc3cc(F)ccc3C)c3ccccc3n2)cc1 [Compound 195] | + (cell loss of greater than 50 percent at a concentration that equals or is greater than 25 μM was represented as) | + (“+” equals >25 μM) |
| Fc1ccc(Nc2nc(-c3cccnc3)nc3ccccc23)cc1F [Compound 196] | + (cell loss of greater than 50 percent at a concentration that equals or is greater than 25 μM was represented as) | + (“+” equals >25 μM) |
| Cc1ccc(Nc2nc(-c3ccc(C)cc3)nc3ccccc23)cc1 [Compound 197] | + (cell loss of greater than 50 percent at a concentration that equals or is greater than 25 μM was represented as) | + (“+” equals >25 μM) |
| COc1cc(-c2nc(Nc3cc(F)ccc3C)c3ccccc3n2)cc(OC)c1OC [Compound 198] | + (cell loss of greater than 50 percent at a concentration that equals or is greater than 25 μM was represented as) | + (“+” equals >25 μM) |
| Cc1ccc(Nc2nc(-c3ccccc3Cl)nc3ccccc23)c(C)c1 [Compound 199] | + (cell loss of greater than 50 percent at a concentration that equals or is greater than 25 μM was represented as) | + (“+” equals >25 μM) |
| Cc1ccc(Nc2nc(-c3ccc([N+](=O)[O-])cc3)nc3ccccc23)c(C)c1 [Compound 200] | + (cell loss of greater than 50 percent at a concentration that equals or is greater than 25 μM was represented as) | ++ (“++” equals between ≤25 μM and >1 μM) |
| Cc1ccc(-c2nc(Nc3ccccc3F)c3ccccc3n2)cc1 [Compound 201] | + (cell loss of greater than 50 percent at a concentration that equals or is greater than 25 μM was represented as) | + (“+” equals >25 μM) |
| Cc1ccc(-c2nc(Nc3ccc(C)c(F)c3)c3ccccc3n2)cc1 [Compound 202] | + (cell loss of greater than 50 percent at a concentration that equals or is greater than 25 μM was represented as) | + (“+” equals >25 μM) |
| COc1cc(-n2c(=O)c3ccccc3n(CC(=O)Nc3ccc(C(C)C)cc3)c2=O)cc(OC)c1OC [Compound 214] | + (cell loss of greater than 50 percent at a concentration that equals or is greater than 25 μM was represented as) | + (“+” equals >25 μM) |
| COc1ccc(-n2c(=O)c3ccc(C(=O)NCCc4ccccc4)cc3n(Cc3cccc(F)c3)c2=O)cc1 [Compound 215] | ++ (cell loss of greater than 50 percent at a concentration less than 25 μM and greater than 1 μM was represented as) | ++ (“++” equals between ≤25 μM and >1 μM) |
